# Assay results reported in US7772252B2, “Heterocyclic substituted carbonyl derivatives and their use as dopamine D3 receptor ligands” (Aventis Pharmaceuticals Inc., priority 2001, dated 2010).
# Target: T1, cloned human dopamine D3 receptors (Homo sapiens, UniProt P35462)
# T1 construct: expressed in transfected cells; membrane homogenate
# Test: [N-Methyl-3H]Spiroperidol binding to cloned human dopamine D3 receptors
# Settings: read-out: D3 Ki
# From the text: [N-Methyl-^3H]Spiroperidol Binding to Cloned Human Dopamine D3 Receptors
# This assay measures the in vitro activity of compounds on cloned human dopamine (D3) receptors and predicts the direct dopamine-blocking properties of putative neuropsychiatric agents at human dopamine D3 receptors.
# The D3 gene was isolated from a human striatal cDNA library (Stratagene). The gene was sequenced and sub-cloned into the expression vector RC/RSV (Invitrogen). CHO (Chinese Hamster Ovary) cells were stably transfected with 10 μg of the D3/RSV plasmid using the DOTAP method from Boehringer Mannheim and 72 clones that were G418 resistant were isolated. Using mRNA and binding displacement data a single high expressing clone was identified. This clone was then grown in large batches for the purpose of developing a 96 well format assay.
# • 1. One plate (10 cm) with approximately 2-3 million D3 cells per plate is incubated with 1 ml of Trypsin-EDTA at room temperature for ˜2 min or until cells have lifted off plates. Four ml of Ham's F12+10% Fetal Bovine Serum+1% Penicillin/Streptomycin+G418 (400 μg/ml) medium are added to resuspend cells and 1 ml of this is added to each large plate (15 cm) containing 19 ml of the same medium as mentioned above. • 2. The 5 large plates are incubated at 37° C.+5% CO2 for ˜3 days or until the cells are confluent. • 3. After these plates are confluent, they are split into 10 large plates. Medium is aspirated off, 2 ml of Trypsin-EDTA are added to each plate and plates are incubated at RT for 2 min or until cells have lifted off the plate. Eight ml of the F12 medium (same medium as #1 above) are added to each plate (10 ml total) to resuspend the cells and 5 ml are transferred to the 2 new plates containing 15 ml of the F12 media. • 4. The 10 large plates are incubated at 37° C.+5% CO2 for ˜2 days or until the cells are confluent. • 5. The 10 large plates are split into 60 large plates (using Trypsin-EDTA as #3 except 4 ml of F12 medium are added to resuspend cells and 1 ml is aliquoted to 6 new plates containing 19 ml of F12 medium each). • 6. Plates are incubated at 37° C.+5% CO2 for ˜3 days or until cell are confluent. • 7. The 60 large plates are then split into 60 roller bottles (100-150 million cells/bottle). Medium is aspirated off, 2 ml of Trypsin-EDTA are added to each plate and incubated at RT for ˜2 minutes or until cells have lifted off plates. Eight ml of F12 medium are added to each plate to resuspend cells and the entire 10 ml are added to 1 roller bottle containing 90 ml of the F12 medium. • 8. The 60 roller bottles are immediately placed on their sides and transferred to the roller bottle incubator. They are incubated at 37° C.+5% CO2 for ˜3-5 days. Cells are spun at 30-40% motor speed in the Form a incubator. • 9. Medium is poured off and cells are washed 2× in PBS. • 10. Cells are then scraped off in 20 ml of PBS and the bottles are rinsed again with 5 ml of PBS to remove any remaining cells. Cells are stored on ice before membrane preparation. • 11. The yield for 60 D3 roller bottles has varied from ˜260-500 mg. • Note: All tissue culture reagents are from Gibco-BRL. C. Membrane Preparation
# The cells are harvested into 250 ml centrifuge tubes with 100 volumes of cold phosphate buffered saline (PBS) and spun down (1200×G for 10 min at 4° C.). The medium is removed and 100 ml PBS are added to each centrifuge tube, cells are resuspened and spun down again. The PBS is removed and the final pellet is homogenized in an appropriate volume of 10% DMSO with a polytron on ice at a medium setting.
# A 200 μl sample membrane homogenate is added to 200 μl of 1% SDS, vortexed and allowed to stand for 5 min. Aliquots (25, 50 and 100 μl) of this mixture are assayed in duplicate following the standard Bio-Rad DC protein assay protocol (kit catalog number 500-0112) and using reagent S. Absorbance readings are made at 750 nm (note: the most accurate protein OD readings are between 0.1-0.5 units). […]
# T1 sequence (P35462 whole entry): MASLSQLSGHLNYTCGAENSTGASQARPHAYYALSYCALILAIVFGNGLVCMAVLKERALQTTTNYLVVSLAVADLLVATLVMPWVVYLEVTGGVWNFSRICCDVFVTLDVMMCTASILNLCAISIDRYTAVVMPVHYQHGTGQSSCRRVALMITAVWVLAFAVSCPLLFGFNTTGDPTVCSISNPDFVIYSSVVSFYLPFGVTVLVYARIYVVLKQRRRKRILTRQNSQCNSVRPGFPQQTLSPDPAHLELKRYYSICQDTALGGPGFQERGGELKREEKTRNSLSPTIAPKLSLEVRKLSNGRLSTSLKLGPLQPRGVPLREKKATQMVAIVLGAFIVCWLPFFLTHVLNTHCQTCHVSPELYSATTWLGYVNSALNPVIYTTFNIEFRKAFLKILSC
row,Ki,Structure (SMILES)
1,0.0112 µM,O=C(NCCc1cccc(F)c1)C1CC1CN1CCC(c2noc3ccsc23)CC1 (racemic) [compound 831801]
2,0.0134 µM,O=C(NCCc1ccc(F)cc1)C1CC1CN1CCC(c2noc3ccsc23)CC1 (racemic) [compound 831802]
3,0.00744 µM,Cc1ccc(CCNC(=O)C2CC2CN2CCC(c3noc4ccsc34)CC2)cc1 (racemic) [compound 831803]
4,0.00989 µM,COc1cccc(CCNC(=O)C2CC2CN2CCC(c3noc4ccsc34)CC2)c1 (racemic) [compound 831804]
5,0.0102 µM,COc1ccccc1CCNC(=O)C1CC1CN1CCC(c2noc3ccsc23)CC1 (racemic) [compound 831805]
6,0.819 µM,COc1cccc(C(=O)NNC(=O)C2CC2CN2CCC(c3noc4ccsc34)CC2)c1 (racemic) [compound 831811]
7,0.453 µM,O=C(NNC(=O)C1CC1CN1CCC(c2noc3ccsc23)CC1)c1ccc(Cl)cc1 (racemic) [compound 831812]
8,0.000117 µM,O=C(NC1CCN(Cc2ccc3ccccc3c2)CC1)C1CC1CN1CCC(c2noc3ccsc23)CC1 (racemic) [compound 831818]
9,0.0001 µM,O=C(NC1CCN(Cc2cc(Cl)cc(Cl)c2)CC1)C1CC1CN1CCC(c2noc3ccsc23)CC1 (racemic) [compound 831819]
10,0.00654 µM,O=C(NC1CCN(Cc2ccc(Oc3ccccc3)cc2)CC1)C1CC1CN1CCC(c2noc3ccsc23)CC1 (racemic) [compound 831820]
11,0.0241 µM,O=C(NC1CCN(Cc2c(Cl)cccc2Cl)CC1)C1CC1CN1CCC(c2noc3ccsc23)CC1 (racemic) [compound 831821]
12,0.00138 µM,O=C(NC1CCN(Cc2cccc3ccccc23)CC1)C1CC1CN1CCC(c2noc3ccsc23)CC1 (racemic) [compound 831822]
13,0.00631 µM,O=C(NC1CCN(Cc2cccc(C(F)(F)F)c2)CC1)C1CC1CN1CCC(c2noc3ccsc23)CC1 (racemic) [compound 831831]
14,0.234 µM,O=C(C1CC1CN1CCC(c2noc3ccsc23)CC1)N1CCN(S(=O)(=O)c2ccccc2)CC1 (racemic) [compound 831835]
15,0.0943 µM,O=C(C1CC1CN1CCC(c2noc3ccsc23)CC1)N1CCN(S(=O)(=O)c2ccc(-c3ccccc3)cc2)CC1 (racemic) [compound 831836]
16,0.491 µM,O=C(C1CC1CN1CCC(c2noc3ccsc23)CC1)N1CCN(S(=O)(=O)Cc2ccccc2)CC1 (racemic) [compound 831837]
17,0.00481 µM,Cc1ccc(CN2CCC(NC(=O)C3CC3CN3CCC(c4noc5ccsc45)CC3)CC2)cc1 (racemic) [compound 831992]
18,0.00251 µM,O=C(NC1CCN(Cc2ccc(F)cc2)CC1)C1CC1CN1CCC(c2noc3ccsc23)CC1 (racemic) [compound 831993]
19,0.00268 µM,O=C(NC1CCN(Cc2cccc(F)c2)CC1)C1CC1CN1CCC(c2noc3ccsc23)CC1 (racemic) [compound 831994]
20,0.00473 µM,O=C(NC1CCN(Cc2cccc(Cl)c2)CC1)C1CC1CN1CCC(c2noc3ccsc23)CC1 (racemic) [compound 831995]
21,0.00797 µM,O=C(NC1CCN(Cc2ccccc2Cl)CC1)C1CC1CN1CCC(c2noc3ccsc23)CC1 (racemic) [compound 831996]
22,0.00355 µM,O=C(NC1CCN(Cc2ccc(Cl)cc2)CC1)C1CC1CN1CCC(c2noc3ccsc23)CC1 (racemic) [compound 831997]
23,0.00746 µM,O=C(NC1CCN(Cc2ccc(Cl)c(Cl)c2)CC1)C1CC1CN1CCC(c2noc3ccsc23)CC1 (racemic) [compound 831998]
24,0.473 µM,O=C(C1CC1CN1CCC(c2noc3ccsc23)CC1)N1CCN(Cc2ccncc2)CC1 (racemic) [compound 831999]
25,0.0796 µM,O=C(C1CC1CN1CCC(c2noc3ccsc23)CC1)N1CCN(CCc2ccncc2)CC1 (racemic) [compound 832000]

row,Ki,Structure (SMILES)
1,0.657 µM,O=C(NCCS(=O)(=O)c1cccc2cnccc12)C1CC1CN1CCC(c2noc3ccsc23)CC1 (racemic) [compound 832044]
2,0.0355 µM,CC(C)(C)c1ccc(CCNC(=O)C2CC2CN2CCC(c3noc4ccsc34)CC2)cc1 (racemic) [compound 832046]
3,0.0258 µM,O=C(NCCc1cccc(C(F)(F)F)c1)C1CC1CN1CCC(c2noc3ccsc23)CC1 (racemic) [compound 832047]
4,0.00654 µM,O=C(C1CC1CN1CCC(c2noc3ccsc23)CC1)N1CCN(CCc2cccs2)CC1 (racemic) [compound 832049]
5,0.112 µM,O=C(C1COc2ccccc2O1)N1CCN(C(=O)C2CC2CN2CCC(c3noc4ccsc34)CC2)CC1 (racemic) [compound 832055]
6,0.0217 µM,O=C(C1CC1CN1CCC(c2noc3ccsc23)CC1)N1CCN(CCc2ccccc2)CC1 (racemic) [compound 832057]
7,0.00413 µM,O=C(C1CC1CN1CCC(c2noc3ccsc23)CC1)N1CCN(c2ccc(OCc3ccccc3)cc2)CC1 (racemic) [compound 832059]
8,0.0307 µM,O=C(C1CC1CN1CCC(c2noc3ccsc23)CC1)N1CCN(Cc2ccccc2)CC1 (racemic) [compound 832153]
9,0.0219 µM,Cc1ccc(CN2CCN(C(=O)C3CC3CN3CCC(c4noc5ccsc45)CC3)CC2)cc1 (racemic) [compound 832154]
10,0.000434 µM,COc1ccc(CN2CCN(C(=O)C3CC3CN3CCC(c4noc5ccsc45)CC3)CC2)cc1 (racemic) [compound 832155]
11,0.000315 µM,O=C(C1CC1CN1CCC(c2noc3ccsc23)CC1)N1CCN(Cc2ccc(Cl)cc2)CC1 (racemic) [compound 832156]
12,0.000226 µM,CC(C)(C)c1ccc(CN2CCN(C(=O)C3CC3CN3CCC(c4noc5ccsc45)CC3)CC2)cc1 (racemic) [compound 832157]
13,0.00037 µM,Cc1cccc(CN2CCN(C(=O)C3CC3CN3CCC(c4noc5ccsc45)CC3)CC2)c1 (racemic) [compound 832158]
14,0.0066 µM,O=C(C1CC1CN1CCC(c2noc3ccsc23)CC1)N1CCN(Cc2ccc(F)cc2)CC1 (racemic) [compound 832164]
15,0.0301 µM,O=C(C1CC1CN1CCC(c2noc3ccsc23)CC1)N1CCN(Cc2ccc3c(c2)OCO3)CC1 (racemic) [compound 832165]
16,0.00787 µM,O=C(NCCCc1ccn(S(=O)(=O)c2ccccc2)c1)C1CC1CN1CCC(c2noc3ccsc23)CC1 (racemic) [compound 832185]
17,0.0161 µM,COc1ccc(CCNC(=O)C2CC2CN2CCC(c3noc4ccsc34)CC2)cc1OC (racemic) [compound 832186]
18,0.0191 µM,CC1(C)CC(NC(=O)C2CC2CN2CCC(c3noc4ccsc34)CC2)CC(C)(C)N1 (racemic) [compound 832187]
19,0.0101 µM,CC(C)N1CCN(C(=O)C2CC2CN2CCC(c3noc4ccsc34)CC2)CC1 (racemic) [compound 832188]
20,0.0585 µM,C=CCN1CCN(C(=O)C2CC2CN2CCC(c3noc4ccsc34)CC2)CC1 (racemic) [compound 832189]
21,0.0946 µM,COCCN1CCN(C(=O)C2CC2CN2CCC(c3noc4ccsc34)CC2)CC1 (racemic) [compound 832190]
22,0.00806 µM,O=C(NCCC(c1ccccc1)c1ccccc1)C1CC1CN1CCC(c2noc3ccsc23)CC1 (racemic) [compound 832191]
23,0.00781 µM,O=C(NCCCc1cc[nH]c1)C1CC1CN1CCC(c2noc3ccsc23)CC1 (racemic) [compound 832192]
24,0.0131 µM,O=C(C1CC1CN1CCC(c2noc3ccsc23)CC1)N1CCC(n2ccnc2)CC1 (racemic) [compound 832193]

row,Structure (SMILES),Ki
1,O=C(C1CC1CN1CCC(c2noc3ccsc23)CC1)N1CCN(S(=O)(=O)C=Cc2ccccc2)CC1 (racemic) [compound 831838],0.141 µM
